Where two headings read alike, the source gives them in different places. Non-standard residues stand in square brackets, D forms with d. Residues, ends and D or L forms follow the SMILES beside them. Nle = CCCC[C@H](N)C(=O)O

In assay [1] the test system is human BARD1 protein (SEQ ID NO:1). Kind of assay: in vitro cleavage of 35S-labeled human BARD1 by NaB-treated SW48 cell extracts, inhibition by protease inhibitors. The assay is classed as biochemical. The method, then: (§1) The human BARD1 protein (SEQ ID NO:1), labeled with ^35S-methionine, was transcribed and translated in vitro using the TNT coupled reticulocytes lysate system kit (Promega). 1 μg of plasmid was used in a reaction medium for the transcription and the translation, containing 4 μl of ^35S-methionine (NEN). For the in vitro cleavage, 2 μl of transcription/translation products were incubated with apoptotic or nonapoptotic cell extracts prepared in a DIV buffer (20 mM HEPES. PH 7.5, 10 mM NaCl, 1.5 mM MgCl2, 0.1% SB14, 0.5 mM PMSF) at 37° C. for the period of time indicated. […] Inhibition of the cleavage was evaluated by adding caspase inhibitors or a proteasome inhibitor (lactacystine) (Calbiochem) or the calpain inhibitor I (ALLnL) (Chemicon).
To define the proteolytic activity responsible for the cleavage of hBARD1 (SEQ ID NO:1), various preparations of cell extracts from SW48 cells treated with NAB were tested. It appears that both the nuclear preparations and the mitochondrial preparations were capable of cleaving hBARD1 (SEQ ID NO:1). The supernatant at 13,000×g of the organelle preparation had no effect.

Another assay deals with caspases 3, 6 and 8. Kind of assay: caspase activity in extracts of NaB-treated SW48 cells (fluorogenic substrates). The class given is cell-based, human. The conditions noted are these: during NaB treatment of SW48 cells; caspase 3 most active after 6 and 12 hours. The method, then:
For assaying the caspase activity, 10 μg of cell extracts were diluted in 5 μl of DIV buffer:
Acetyl-Asp-Glu-Val-Asp-7-amino-4-methylcoumarin (Ac-DEVD-AMC), acetyl-Val-Glu-Ile-Asp-7-amino-4-methylcoumarin (Ac-VEID-AMC) and […] (Bachem), substrates for caspases 3, 6 and 8, respectively, were added at a final concentration of 50 μM. The cleavage activity was controlled on Fluorolite 1000 (Dynatech laboratories).

A further assay has as its system SW48 cells. Kind of assay: NaB treatment of SW48 cells: induction of BARD1 and calpastatin cleavage. The assay is classed as cell-based, human. The conditions noted are these: SW48 cells treated with NaB. The method, then:
Apoptosis was induced by treatment with sodium butyrate (NaB). The cells at different stages of confluence were treated in complete medium at 37° C. and with 5 mM of NaB (Sigma) for various periods of time. The apoptotic bodies were purified as previously described (Gautier et al., 1999):
as §1
The SW48 cells were arrested in G0 by contact inhibition in 175 cm^2 flasks. After confluencing for 3 days, the cells were split 1:10 in 75 cm^2 flasks at a concentration of 3×10^6 cells per flask. 12, 20, 28, 36 and 44 hours after seeding, the cells were treated with 5 mM of NaB for 24 hours and collected. To determine the cell cycle distribution at each time, the content of each flask was subjected to trypsinization, washed three times in 10 ml of ice-cold PBS, and fixed with 1 ml of ice-cold 70% ethanol, added dropwise, for 16 hours at −20° C. The fixed cells were pelletted, resuspended in 500 μl of PC buffer (96% 0.2M Na2HPO4, 4% 15 0.1M citric acid, pH 7.8) and left at ambient temperature for 30 minutes. They were then washed and resuspended in 500 μl of propidium iodide in a staining solution (PBS, 0.12% Triton X-100, 0.12 mM EDTA, 100 μg/ml RNase A), incubated for 30 minutes at 37° C. and analyzed on a FACScan (flow cytometer) (Beckton Dickinson). […]

A further assay deals with PROb tumors. Kind of assay: vaccination of BDIX rats, then subcutaneous PROb tumor challenge. The class given is in vivo. The conditions noted are these: three weekly intraplantar injections of 100 μg in complete Freund's adjuvant; PROb cells s.c. two weeks after final immunization; versus control protein (fucosyl transferase). The method, then: Two groups of BDIX rats were given three weekly intraplantar injections of 100 μg of F1 fragment (amino acids 460-611) of BARD1 (SEQ ID NO:9) or of a controlled protein (fucosyl transferase) purified under the same conditions as the F1 fragment. The proteins were emulsified in 100 μl of complete Freund's adjuvant. Two weeks after the final immunization, the rat colon tumor cells (PROb, 50×10^3/rat) were injected subcutaneously and the volume of the PROb tumors was estimated.

With “benzyloxycarbonyl-Asp-Glu-Val-Asp-fluoromethylketone [Z-DEVD-frnk]”, the “inhibition of the hydrolysis of hBARD1” value in assay [1] is “no effect”.

`CCCC[C@@H](C=O)NC(=O)[C@H](CC(C)C)NC(=O)[C@H](CC(C)C)NC(C)=O` [ALLnL, N-acetyl-leu-leu-norleucinal] (Ac-Leu-Leu-[Nle]-aldehyde): the “inhibition of the hydrolysis of hBARD1” value in assay [1] is reported as “inhibited”; in assay [1] (dose-dependent manner), “strongly inhibited”.

As to `CCCC(=O)[O-].[Na+]` [NaB, sodium butyrate], in the assay on caspases 3, 6 and 8, the “activities of caspases 3, 6 and 8” value is reported as “gradually increased”. Further, in the assay on SW48 cells, the “treatment time after which BARD1 cleavage was virtually complete” value is about 12 h, the “treatment time after which calpastatin was completely cleaved” value amounted to 12 h and the “treatment time after which the p67 protein appeared” value came out at 4 h.

Regarding “benzyloxycarbonyl-Val-Glu-Ile-Asp-fluoromethyl ketone [Z-VEID-fmk]”, the “inhibition of the hydrolysis of hBARD1” value in assay [1] is “no effect”.

For the molecule `CC(=O)N[C@@H](CSC(=O)[C@]1([C@@H](O)C(C)C)NC(=O)[C@H](C)[C@@H]1O)C(=O)O` [lactacystine], the “blocking of the proteolysis of hBARD1” value in assay [1] (even at concentrations of 100 μm) is listed as “does not block”.

As for “benzyloxycarbonyl-Val-Ala-Asp-fluoromethylketone [ZVAD-fmk]”, in assay [1] (high concentration (100 μM)), the “inhibition of the hydrolysis of hBARD1” value is “slightly inhibited”.

As to `O=C(O)CN(CCOCCOCCN(CC(=O)O)CC(=O)O)CC(=O)O` [EGTA], the “inhibition of the hydrolysis of hBARD1” value in assay [1] is recorded as “inhibited”; in assay [1] (dose-dependent manner), “strongly inhibited”.

B1: BARD1 fragment: F1 fragment (amino acids 460-611) of rat BARD1 with N-terminal 6xHis tag, expressed in E. coli (protein, listed as Rattus norvegicus)
chain: SHGHLKIVELLLQHNALVNTTGYHNDSPLHDAAKNGHIDIVKVLLSHGASRNAVNIFGERPVDYTDAENIRSLLLLPEKTDSFSTSQCSVQVNTGQRKSGPLVLIGSGLSSQQQKLLSKLETVLKAKKCAEFDNTVTHVIVPDEEAQSTLKC
modifications: N-terminal 6xHis tag
notes: F1 fragment (amino acids 460-611) of rat BARD1 with N-terminal 6xHis tag, expressed in E. coli
For the molecule B1, the “PROb tumor growth (tumor volume)” value in the assay with PROb tumors is recorded as “slowing down of tumor growth”.

Source of the values: patent US20100016228A1, “TRUNCATED BARD1 PROTEIN, AND ITS DIAGNOSTIC AND THERAPEUTIC USES” (Ayanda Biosystems SA, priority 2000, published 2010).
